In one data set the test system is SARS-CoV-2. The format is cell-based, SARS-CoV-2 (βCoV/KOR/KCDC03/2020). To be noted: Severe acute respiratory syndrome coronavirus 2, Vero; for IC50: read-out: IC50 against SARS-CoV-2 infection.
For data set [1] the following is noted: cited from earlier work.
Another data set deals with Vero cells. Conditions: at concentration 12.50 μM.

The term IC50 denotes the midpoint of a concentration-inhibition curve. For orientation: inhibition means how much of the control response was suppressed.

In the case of `CCN(CC)CCCC(C)Nc1ccnc2cc(Cl)ccc12` (centres unmarked) [chloroquine, reference compound], the IC50 with SARS-CoV-2 was 9.78 µM.

For the compound `CCCCCc1cc(O)c2c(c1)OC(C)(C)[C@@H]1CCC(C)=C[C@@H]21` [Δ^9-THC, Δ^9-tetrahydrocannabinol], in the data set on SARS-CoV-2, the IC50 came out at 10.2 µM.

On to `CCCCCc1cc(O)c2c(c1)OC(C)(C)c1ccc(C)cc1-2` [CBN, Cannabinol], for which the IC50 in the data set with SARS-CoV-2 turned out to be 11.1 µM.

For `C=C(C)[C@@H]1CCC(C)=C[C@H]1c1c(O)cc(CCCCC)c(C(=O)O)c1O` [CBDA, Cannabidiolic acid], in the data set on SARS-CoV-2, the 50% inhibitory concentration (IC50) was determined as 37.6 µM.

On to `CCC(CC)COC(=O)[C@H](C)N[P@](=O)(OC[C@H]1O[C@@](C#N)(c2ccc3c(N)ncnn23)[C@H](O)[C@@H]1O)Oc1ccccc1` [remdesivir, reference compound], for which the IC50 in the data set with SARS-CoV-2 came to 8.17 µM.

For `C=C(C)[C@@H]1CCC(C)=C[C@H]1c1c(O)cc(CCCCC)cc1O` [CBD, Cannabidiol], the IC50 in the data set with SARS-CoV-2 turned out to be 7.91 µM. The inhibition at 12.5 µM with SARS-CoV-2 (read-out: inhibition of SARS-CoV-2 virus) was 99.2%. For the same compound, the safe dose result in data set [1] (humans, concluded from literature dosing) is listed as “up to 60 mg per day”. The “safety of a single oral dose” value in data set [1] (single oral dose 100 mg, healthy volunteers) is “safe and tolerable”. In addition, the “Vero cell survival ratio” value in the data set on Vero cells was determined as 97.46%.

In the case of `Cc1cccc(C)c1OCC(=O)N[C@@H](Cc1ccccc1)[C@@H](O)C[C@H](Cc1ccccc1)NC(=O)[C@H](C(C)C)N1CCCNC1=O` [lopinavir, reference compound], the IC50 in the data set on SARS-CoV-2 amounted to 13.2 µM.

The values above are taken from article PMC7836687 (International Journal of Biological Macromolecules, 2020).
